In patent US6177422A (Warner-Lambert Company, priority 1998, dated 2001):

Molecular target: T1, human recombinant dopamine D4.2 receptor (Homo sapiens, UniProt P21917, DEL265-296)
T1 construct: expressed in transfected cells
T1 sequence (P21917 with tags, fused parts or gaps DEL265-296): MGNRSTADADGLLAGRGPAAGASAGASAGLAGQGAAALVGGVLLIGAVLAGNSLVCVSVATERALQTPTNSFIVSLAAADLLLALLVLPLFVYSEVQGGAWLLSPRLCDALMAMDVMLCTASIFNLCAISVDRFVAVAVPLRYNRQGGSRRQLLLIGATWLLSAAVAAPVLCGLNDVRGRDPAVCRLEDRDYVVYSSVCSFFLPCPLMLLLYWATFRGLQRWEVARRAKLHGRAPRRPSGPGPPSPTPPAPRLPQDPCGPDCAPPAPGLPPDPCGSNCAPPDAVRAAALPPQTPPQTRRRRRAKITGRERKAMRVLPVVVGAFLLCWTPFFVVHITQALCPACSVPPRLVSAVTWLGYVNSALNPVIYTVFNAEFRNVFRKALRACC
Assay: [3H]spiperone receptor binding assay, human dopamine D4.2, CHO K1 cell membranes

| Ki | Compound |
| --- | --- |
| 2.84 nM | Cc1ccc(C2CCN(Cc3ccc4c(c3)NC(=O)CO4)CC2)cc1 [Example 16, 6-(4-p-Tolyl-piperidin-1-ylmethyl)-4H-benzo[1,4]oxazin-3-one] |
| 173 nM | O=C1COc2ccc(CN3CCN(c4ccc(C(F)(F)F)cc4)CC3)cc2N1 [Example 31, 6-[4-(4-Trifluoromethyl-phenyl)-piperazin-1-ylmethyl]-4H-benzo[1,4]oxazin-3-one] |
